In general, AC50 refers to the concentration at which the activity in the assay is half-maximal. A high value points to weaker potency.

Among the data in ChEMBL document CHEMBL5291721, “A preclinical secondary pharmacology resource illuminates target-adverse drug reaction associations of marketed drugs” (Nat Commun, 2023) are AC50 values, retold here.

The target in test [1] is T1, Histamine H1 receptor (Homo sapiens, UniProt P35367). Format: functional, cell-based.
The target of test [2] is T1, Histamine H1 receptor. The class given is functional, cell-based. This is another data set of the same source.
Test [3] has as its target T2, Androgen receptor (Rattus norvegicus, UniProt P15207).
T2 sequence (P15207 whole entry): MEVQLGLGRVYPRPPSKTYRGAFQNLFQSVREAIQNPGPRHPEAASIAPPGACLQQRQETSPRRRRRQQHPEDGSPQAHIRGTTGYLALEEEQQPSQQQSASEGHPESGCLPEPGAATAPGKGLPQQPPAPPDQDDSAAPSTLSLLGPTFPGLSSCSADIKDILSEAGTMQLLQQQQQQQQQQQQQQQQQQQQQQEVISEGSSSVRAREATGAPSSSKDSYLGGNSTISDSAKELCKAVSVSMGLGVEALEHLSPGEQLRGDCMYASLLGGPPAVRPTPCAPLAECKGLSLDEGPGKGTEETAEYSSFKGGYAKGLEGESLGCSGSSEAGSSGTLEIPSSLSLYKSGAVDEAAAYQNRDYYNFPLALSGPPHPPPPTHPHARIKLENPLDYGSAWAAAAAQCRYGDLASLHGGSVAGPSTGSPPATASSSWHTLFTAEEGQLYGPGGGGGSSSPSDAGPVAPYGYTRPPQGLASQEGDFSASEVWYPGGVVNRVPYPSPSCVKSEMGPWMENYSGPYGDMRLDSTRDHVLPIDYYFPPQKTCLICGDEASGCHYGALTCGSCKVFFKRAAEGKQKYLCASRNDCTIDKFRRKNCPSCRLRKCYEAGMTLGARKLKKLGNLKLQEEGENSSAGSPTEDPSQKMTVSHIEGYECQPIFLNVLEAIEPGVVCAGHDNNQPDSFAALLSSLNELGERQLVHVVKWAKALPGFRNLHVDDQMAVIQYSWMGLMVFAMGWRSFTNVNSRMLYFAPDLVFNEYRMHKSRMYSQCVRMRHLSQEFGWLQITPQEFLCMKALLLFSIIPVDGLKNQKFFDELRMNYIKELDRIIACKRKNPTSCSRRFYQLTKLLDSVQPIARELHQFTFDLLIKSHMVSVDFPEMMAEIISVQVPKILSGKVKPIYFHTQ
The class given is functional.

In test [4] the target is D(1A) dopamine receptor (Homo sapiens, UniProt P21728). Format: functional, cell-based.
The target of test [5] is T3, Muscarinic acetylcholine receptor M4 (Homo sapiens, UniProt P08173).
T3 sequence (P08173 whole entry): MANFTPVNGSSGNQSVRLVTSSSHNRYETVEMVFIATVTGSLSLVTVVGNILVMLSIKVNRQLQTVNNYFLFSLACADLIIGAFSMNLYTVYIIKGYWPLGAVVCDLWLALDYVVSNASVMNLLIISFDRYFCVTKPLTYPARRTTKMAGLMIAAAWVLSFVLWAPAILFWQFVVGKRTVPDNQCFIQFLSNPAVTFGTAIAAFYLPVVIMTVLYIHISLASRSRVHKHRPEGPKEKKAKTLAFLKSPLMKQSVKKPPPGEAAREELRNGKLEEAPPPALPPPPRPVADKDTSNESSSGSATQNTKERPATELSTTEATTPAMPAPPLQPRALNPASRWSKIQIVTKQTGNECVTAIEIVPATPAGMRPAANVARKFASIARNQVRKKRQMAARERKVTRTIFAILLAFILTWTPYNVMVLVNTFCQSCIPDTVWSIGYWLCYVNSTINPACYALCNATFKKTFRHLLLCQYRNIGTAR

The target in test [6] is Vascular endothelial growth factor receptor 2 (Homo sapiens, UniProt P35968). The class given is functional.
Test [7] has as its target Rod cGMP-specific 3',5'-cyclic phosphodiesterase subunit alpha (Homo sapiens, UniProt P16499). Format: functional.
Test [8] addresses D(1B) dopamine receptor (Homo sapiens, UniProt P21918).
Test [9] addresses 5-hydroxytryptamine receptor 5A (Homo sapiens, UniProt P47898).
Test [10] deals with T4, Thromboxane A2 receptor (Homo sapiens, UniProt P21731).
T4 sequence (P21731 whole entry): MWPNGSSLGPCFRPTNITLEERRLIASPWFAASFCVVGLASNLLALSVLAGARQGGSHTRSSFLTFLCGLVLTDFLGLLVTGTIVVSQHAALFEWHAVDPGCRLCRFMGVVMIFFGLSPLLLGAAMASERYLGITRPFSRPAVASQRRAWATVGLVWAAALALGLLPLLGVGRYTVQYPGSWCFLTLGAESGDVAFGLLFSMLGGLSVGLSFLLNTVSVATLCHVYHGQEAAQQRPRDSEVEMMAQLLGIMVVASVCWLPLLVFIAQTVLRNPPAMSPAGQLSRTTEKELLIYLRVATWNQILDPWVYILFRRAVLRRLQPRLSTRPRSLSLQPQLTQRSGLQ
Format: functional.

The target in test [11] is Beta-1 adrenergic receptor (Homo sapiens, UniProt P08588). The class given is functional, cell-based.
Test [12] addresses T5, Peroxisome proliferator-activated receptor gamma (Homo sapiens, UniProt P37231).
T5 sequence (P37231 whole entry): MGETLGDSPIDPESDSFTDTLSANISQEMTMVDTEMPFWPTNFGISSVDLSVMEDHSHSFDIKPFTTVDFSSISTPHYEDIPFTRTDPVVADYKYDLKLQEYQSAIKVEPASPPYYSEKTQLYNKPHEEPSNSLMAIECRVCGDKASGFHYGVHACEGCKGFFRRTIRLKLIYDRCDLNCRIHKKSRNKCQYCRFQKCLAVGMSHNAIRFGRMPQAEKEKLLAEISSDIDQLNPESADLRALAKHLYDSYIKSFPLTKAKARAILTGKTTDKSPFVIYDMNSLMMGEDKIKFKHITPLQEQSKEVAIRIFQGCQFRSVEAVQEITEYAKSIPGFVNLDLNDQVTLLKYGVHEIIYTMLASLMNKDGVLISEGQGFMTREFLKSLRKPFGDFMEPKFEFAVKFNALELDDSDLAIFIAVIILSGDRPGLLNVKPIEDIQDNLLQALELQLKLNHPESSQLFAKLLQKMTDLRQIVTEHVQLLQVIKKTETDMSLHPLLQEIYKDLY
Format: functional.

For test [13], the target named is T5, Peroxisome proliferator-activated receptor gamma. Format: functional. This is another data set of the same source.
Test [14] concerns the target Gamma-aminobutyric acid type B receptor subunit 1 (Homo sapiens, UniProt Q9UBS5).
In test [15] the target is Synaptic vesicular amine transporter (Rattus norvegicus, UniProt Q01827). The class given is functional.
Note: assay procedure not described here.

T1 sequence (P35367 whole entry): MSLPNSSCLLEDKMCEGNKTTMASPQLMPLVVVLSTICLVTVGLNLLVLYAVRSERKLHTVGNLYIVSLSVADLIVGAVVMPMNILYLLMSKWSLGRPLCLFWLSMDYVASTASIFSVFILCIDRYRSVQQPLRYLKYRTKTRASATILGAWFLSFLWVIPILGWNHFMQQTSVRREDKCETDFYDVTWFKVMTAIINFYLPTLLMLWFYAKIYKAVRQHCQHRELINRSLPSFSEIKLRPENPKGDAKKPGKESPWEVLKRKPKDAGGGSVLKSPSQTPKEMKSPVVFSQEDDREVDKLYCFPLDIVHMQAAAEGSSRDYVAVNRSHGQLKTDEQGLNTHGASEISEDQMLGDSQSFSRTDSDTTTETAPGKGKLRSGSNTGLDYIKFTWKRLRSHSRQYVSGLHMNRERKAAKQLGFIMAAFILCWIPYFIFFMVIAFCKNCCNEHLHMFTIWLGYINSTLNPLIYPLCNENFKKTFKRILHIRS
Gamma-aminobutyric acid type B receptor subunit 1, sequence (Q9UBS5 whole entry): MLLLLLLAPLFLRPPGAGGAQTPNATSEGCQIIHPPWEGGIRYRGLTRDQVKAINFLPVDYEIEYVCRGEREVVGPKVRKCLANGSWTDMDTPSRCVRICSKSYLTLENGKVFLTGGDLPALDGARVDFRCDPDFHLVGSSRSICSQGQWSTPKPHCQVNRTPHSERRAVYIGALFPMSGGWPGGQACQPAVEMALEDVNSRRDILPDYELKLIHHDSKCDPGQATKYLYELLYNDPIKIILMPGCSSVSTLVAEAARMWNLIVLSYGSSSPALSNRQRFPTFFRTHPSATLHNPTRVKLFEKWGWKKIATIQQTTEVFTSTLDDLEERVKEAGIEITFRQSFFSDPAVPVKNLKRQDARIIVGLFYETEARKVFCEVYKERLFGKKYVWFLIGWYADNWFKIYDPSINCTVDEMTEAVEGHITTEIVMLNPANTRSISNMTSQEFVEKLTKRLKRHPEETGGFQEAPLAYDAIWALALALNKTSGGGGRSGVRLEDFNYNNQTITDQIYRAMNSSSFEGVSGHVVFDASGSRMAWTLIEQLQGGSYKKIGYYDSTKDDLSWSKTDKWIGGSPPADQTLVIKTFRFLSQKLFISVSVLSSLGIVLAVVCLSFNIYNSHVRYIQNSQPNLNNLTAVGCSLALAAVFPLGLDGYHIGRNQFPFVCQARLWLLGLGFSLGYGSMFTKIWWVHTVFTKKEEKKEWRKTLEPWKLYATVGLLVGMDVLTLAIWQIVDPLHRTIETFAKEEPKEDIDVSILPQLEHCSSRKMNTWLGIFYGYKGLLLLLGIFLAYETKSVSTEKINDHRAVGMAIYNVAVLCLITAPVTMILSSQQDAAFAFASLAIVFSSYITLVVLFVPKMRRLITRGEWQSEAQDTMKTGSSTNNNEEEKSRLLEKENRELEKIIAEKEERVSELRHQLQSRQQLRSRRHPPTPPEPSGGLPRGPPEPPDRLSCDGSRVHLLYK
Beta-1 adrenergic receptor, sequence (P08588 whole entry): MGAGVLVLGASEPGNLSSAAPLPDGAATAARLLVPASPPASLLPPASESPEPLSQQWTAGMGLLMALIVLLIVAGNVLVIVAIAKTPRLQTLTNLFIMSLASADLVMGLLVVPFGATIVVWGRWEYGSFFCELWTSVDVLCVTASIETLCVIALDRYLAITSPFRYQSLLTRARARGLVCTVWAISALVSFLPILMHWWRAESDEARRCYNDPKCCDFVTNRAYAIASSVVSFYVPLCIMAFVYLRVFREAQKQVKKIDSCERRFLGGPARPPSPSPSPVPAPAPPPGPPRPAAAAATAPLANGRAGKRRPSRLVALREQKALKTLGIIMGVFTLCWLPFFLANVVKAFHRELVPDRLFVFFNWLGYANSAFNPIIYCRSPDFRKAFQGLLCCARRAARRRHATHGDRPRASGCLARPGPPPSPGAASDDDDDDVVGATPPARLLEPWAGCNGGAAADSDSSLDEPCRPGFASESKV
5-hydroxytryptamine receptor 5A, sequence (P47898 whole entry): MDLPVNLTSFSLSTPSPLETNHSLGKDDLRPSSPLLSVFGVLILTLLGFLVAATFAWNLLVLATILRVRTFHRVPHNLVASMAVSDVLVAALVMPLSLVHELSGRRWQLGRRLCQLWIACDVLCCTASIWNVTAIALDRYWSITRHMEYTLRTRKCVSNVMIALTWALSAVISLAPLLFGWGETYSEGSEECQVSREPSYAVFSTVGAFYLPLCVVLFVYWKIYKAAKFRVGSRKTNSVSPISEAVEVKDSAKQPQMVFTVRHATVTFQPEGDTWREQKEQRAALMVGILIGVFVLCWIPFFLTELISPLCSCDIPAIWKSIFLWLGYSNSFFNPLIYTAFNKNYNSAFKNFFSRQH
D(1B) dopamine receptor, sequence (P21918 whole entry): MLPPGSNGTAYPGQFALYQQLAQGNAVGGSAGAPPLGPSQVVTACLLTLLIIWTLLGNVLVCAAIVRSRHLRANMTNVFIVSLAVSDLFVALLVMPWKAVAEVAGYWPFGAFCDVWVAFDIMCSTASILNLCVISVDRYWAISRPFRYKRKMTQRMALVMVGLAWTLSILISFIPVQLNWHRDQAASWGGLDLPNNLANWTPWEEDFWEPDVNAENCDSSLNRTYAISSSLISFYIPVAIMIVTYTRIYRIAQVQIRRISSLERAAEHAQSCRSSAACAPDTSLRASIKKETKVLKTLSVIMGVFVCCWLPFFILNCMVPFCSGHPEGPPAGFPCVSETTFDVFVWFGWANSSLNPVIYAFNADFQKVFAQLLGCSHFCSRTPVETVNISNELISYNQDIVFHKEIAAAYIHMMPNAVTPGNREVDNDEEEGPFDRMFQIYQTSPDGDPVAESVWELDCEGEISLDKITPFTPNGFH
Rod cGMP-specific 3',5'-cyclic phosphodiesterase subunit alpha, sequence (P16499 whole entry): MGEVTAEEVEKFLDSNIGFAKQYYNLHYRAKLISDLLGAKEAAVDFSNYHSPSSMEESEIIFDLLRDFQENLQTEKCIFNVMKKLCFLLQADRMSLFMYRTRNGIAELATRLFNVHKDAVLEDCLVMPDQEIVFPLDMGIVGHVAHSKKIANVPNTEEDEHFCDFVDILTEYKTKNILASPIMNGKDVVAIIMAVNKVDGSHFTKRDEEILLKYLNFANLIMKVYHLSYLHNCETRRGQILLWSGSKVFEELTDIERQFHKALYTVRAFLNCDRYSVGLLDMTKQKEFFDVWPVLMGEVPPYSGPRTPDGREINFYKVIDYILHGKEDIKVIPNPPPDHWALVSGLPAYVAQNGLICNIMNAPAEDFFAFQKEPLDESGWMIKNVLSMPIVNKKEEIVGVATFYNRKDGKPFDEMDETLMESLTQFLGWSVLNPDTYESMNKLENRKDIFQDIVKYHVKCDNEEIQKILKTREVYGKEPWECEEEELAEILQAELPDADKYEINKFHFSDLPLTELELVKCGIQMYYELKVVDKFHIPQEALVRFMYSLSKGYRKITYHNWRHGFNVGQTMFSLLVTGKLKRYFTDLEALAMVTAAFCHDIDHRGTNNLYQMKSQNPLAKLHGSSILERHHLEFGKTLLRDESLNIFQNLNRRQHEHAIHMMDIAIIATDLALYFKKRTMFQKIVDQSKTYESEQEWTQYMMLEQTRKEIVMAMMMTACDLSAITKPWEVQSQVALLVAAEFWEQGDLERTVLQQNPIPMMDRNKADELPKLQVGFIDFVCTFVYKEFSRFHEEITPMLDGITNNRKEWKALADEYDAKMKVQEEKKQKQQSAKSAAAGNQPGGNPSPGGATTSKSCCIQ
Vascular endothelial growth factor receptor 2, sequence (P35968 whole entry): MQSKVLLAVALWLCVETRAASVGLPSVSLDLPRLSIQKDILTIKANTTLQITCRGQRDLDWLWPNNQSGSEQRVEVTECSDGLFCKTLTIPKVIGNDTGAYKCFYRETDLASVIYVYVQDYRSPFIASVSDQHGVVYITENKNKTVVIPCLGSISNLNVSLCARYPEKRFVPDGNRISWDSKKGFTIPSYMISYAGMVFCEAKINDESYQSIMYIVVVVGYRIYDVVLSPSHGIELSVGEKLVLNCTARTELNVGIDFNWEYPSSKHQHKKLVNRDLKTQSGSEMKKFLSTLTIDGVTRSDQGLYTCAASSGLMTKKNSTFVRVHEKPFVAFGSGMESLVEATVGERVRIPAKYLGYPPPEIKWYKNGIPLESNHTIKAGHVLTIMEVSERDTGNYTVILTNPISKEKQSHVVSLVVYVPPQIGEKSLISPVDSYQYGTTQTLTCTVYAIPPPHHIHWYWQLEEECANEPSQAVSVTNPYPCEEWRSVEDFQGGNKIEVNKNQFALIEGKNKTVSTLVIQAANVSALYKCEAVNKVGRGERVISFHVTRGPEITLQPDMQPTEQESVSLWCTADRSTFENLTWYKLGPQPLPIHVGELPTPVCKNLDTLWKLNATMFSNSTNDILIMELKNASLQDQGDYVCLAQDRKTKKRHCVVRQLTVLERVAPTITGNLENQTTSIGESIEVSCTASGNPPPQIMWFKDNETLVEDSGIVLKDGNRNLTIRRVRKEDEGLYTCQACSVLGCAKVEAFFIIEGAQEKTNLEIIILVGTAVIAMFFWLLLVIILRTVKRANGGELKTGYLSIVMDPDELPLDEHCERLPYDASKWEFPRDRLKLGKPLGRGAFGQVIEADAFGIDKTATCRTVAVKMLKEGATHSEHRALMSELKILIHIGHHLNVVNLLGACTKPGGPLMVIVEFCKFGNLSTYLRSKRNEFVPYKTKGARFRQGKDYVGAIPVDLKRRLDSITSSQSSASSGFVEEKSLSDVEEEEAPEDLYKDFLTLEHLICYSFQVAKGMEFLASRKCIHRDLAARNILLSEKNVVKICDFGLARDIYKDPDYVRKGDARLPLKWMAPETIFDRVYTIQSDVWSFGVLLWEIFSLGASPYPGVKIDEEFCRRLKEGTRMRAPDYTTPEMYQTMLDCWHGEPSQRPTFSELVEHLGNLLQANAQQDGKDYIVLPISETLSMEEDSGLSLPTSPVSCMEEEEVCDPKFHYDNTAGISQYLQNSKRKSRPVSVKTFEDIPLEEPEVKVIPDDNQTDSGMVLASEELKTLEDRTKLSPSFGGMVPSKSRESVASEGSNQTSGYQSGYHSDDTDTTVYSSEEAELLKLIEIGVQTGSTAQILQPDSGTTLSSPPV

`CCCC(=O)N1CCCN(c2nc(N)c3cc(OC)c(OC)cc3n2)CC1` [BUNAZOSIN]: the AC50 in [1], in [2] and in [3] was more than 30 µM throughout.

`C[N+](C)(C)CCOC(N)=O` [CARBAMOYLCHOLINE] returned an AC50 in [4] of more than 30 µM.

Turning to `O=C(Nc1ccccc1)OCC(CN1CCCCC1)OC(=O)Nc1ccccc1` (stereo not drawn) [DIPERODON], the AC50 in [5] is more than 10 µM; in [6], more than 30 µM; in test [7], more than 10 µM; in [8], more than 10 µM; in [9], more than 10 µM; in test [10], more than 30 µM.

`C=C1C[C@@H]2[C@H](CC[C@]3(C)C(=O)CC[C@@H]23)[C@@]2(C)C=CC(=O)C=C12` [EXEMESTANE]: the AC50 in test [1] and in [2] was more than 30 µM each time.

Molecule `CC(C(O)c1ccc(O)cc1)N1CCC(Cc2ccccc2)CC1` (stereo not drawn) [IFENPRODIL] registered a half-maximal activity concentration (AC50) in [11] of more than 30 µM.

Consider `CN(CCCN1c2ccccc2CCc2ccccc21)CC(=O)c1ccc(Cl)cc1` [LOFEPRAMINE], for which the concentration at half-maximal activity (AC50) in test [11] is more than 30 µM.

On to `CC(=O)O[C@]1(C(C)=O)CC[C@H]2[C@@H]3C[C@H](C)C4=CC(=O)CC[C@]4(C)[C@H]3CC[C@@]21C` [MEDROXYPROGESTERONE ACETATE], for which the AC50 in [12] and in test [13] was more than 30 µM each time.

Regarding `CN(C)CCCN1c2ccccc2Sc2ccccc21` [PROMAZINE], the AC50 in test [5] was 1.44 µM; in [7] it was more than 10 µM; in test [8] it was 5.78 µM; in test [9], 0.823 µM.

`O=P(O)(O)C(O)(Cc1cccnc1)P(=O)(O)O` [RISEDRONIC ACID] registered an AC50 in test [14] of more than 10 µM.

Consider `O=C1CCC(N2C(=O)c3ccccc3C2=O)C(=O)N1` (stereo not drawn) [THALIDOMIDE], for which the AC50 in [14] is more than 10 µM.

`COc1cc2c(cc1OC)[C@H]1C[C@@H](OC(=O)[C@@H](N)C(C)C)[C@H](CC(C)C)CN1CC2` [VALBENAZINE] had an AC50 in test [15] of 0.46 µM.
